# Measurements: patent US12448388B2, “PRMT5 inhibitors and uses thereof” (Gilead Sciences, Inc., priority 2023, dated 2025)
# Where two headings read alike, the source gives them in different places.
# What was measured:
# [1] = test system: Symmetric Di-methyl Arginine (SDMA) signal (PRMT5 inhibition) in HCT116 MTAP-deleted cells; experiment: Symmetric di-methyl arginine image-based high content screen assay (SDMA assay), HCT116 MTAP-deleted; assay type: cell-based; details: for EC50: Homo sapiens, HCT-116, HCT116 MTAP-deleted, class symbols
# Method in brief: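 Read-out is imaging of per-cell mean SDMA immunofluorescence (Alexa 488), with cells segmented by DAPI. Cells, MTAP-deleted or wild-type HCT116, were exposed to compound for 3 days at 37 °C before fixation. EC50 derived by 4-parameter non-linear logistic regression.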
# [2] = test system: HCT116 MTAP-deleted cell lines; experiment: Cell viability assay (CellTiter-Glo, 7 days), HCT116 MTAP-deleted; assay type: cell-based; details: Homo sapiens, HCT-116, HCT116 MTAP-deleted, class symbols, read-out: CC50
# Method in brief: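 Read-out was CellTiter-Glo luminescence after a 7-day incubation (37 °C, 5% CO2) of HCT116 cells, MTAP-deleted or WT, on dose-response compound plates. CC50 values come from each line; where marked *, selectivity is overstated because poor solubility impaired the WT CC50 measurement.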
# [3] = HCT116 WT versus HCT116 MTAP-deleted
# [4] = HCT116 WT vs HCT116 MTAP-deleted
Compound,"EC50 selectivity [1, 3]",EC50 [1] [nM],CC50 ([2]; cell viability) [nM],"EC50 selectivity [1, 4]",CC50 ([2]; cell viability assay) [nM]
"CC(C)N(Cc1ccc(C(F)(F)F)cn1)C(=O)c1cc2c(cc1F)nc(N)c1cncn12 [Ff-7, 4-amino-7-fluoro-N-isopropyl-N-((5-(trifluoromethyl)pyridin-2-yl)methyl)imidazo[1,5-a]quinoxaline-8-carboxamide]",33,≤ 1,< 100,,
"Nc1nc2ccc(C(=O)N(CC3CC3)[C@@H]3COc4cc(C(F)(F)F)ccc43)cc2n2cncc12 [Ff-407, (S)-4-amino-N-(cyclopropylmethyl)-N-[(3S)-6-(trifluoromethyl)-2,3-dihydrobenzofuran-3-yl]imidazo[1,5-a]quinoxaline-8-carboxamide]",,≤ 1,,65,< 100
"Cc1ncn2c1c(N)nc1ccc(C(=O)N(C)[C@@H]3COc4nc(C(F)(F)F)ccc43)cc12 [Fg-7, (S)-4-amino-N,3-dimethyl-N-(6-(trifluoromethyl)-2,3-dihydrofuro[2,3-b]pyridin-3-yl)imidazo[1,5-a]quinoxaline-8-carboxamide]",,1 to 5,,496,100 to 1000
"C[C@H](c1ncccn1)N(Cc1ccc(C(F)(F)F)cn1)C(=O)c1cc2c(cc1F)nc(N)n1cncc21 [Fg-4, (R)-5-amino-8-fluoro-N-(1-(pyrimidin-2-yl)ethyl)-N-((5-(trifluoromethyl)pyridin-2-yl)methyl)imidazo[1,5-c]quinazoline-9-carboxamide]",,1 to 5,,23,100 to 1000
"Cc1ncc2c(N)nc3ccc(C(=O)N(Cc4ccc(C(F)(F)F)cn4)N(C)c4ncccn4)cc3n12 [Fa-2, 4-amino-N′,1-dimethyl-N′-pyrimidin-2-yl-N-[[5-(trifluoromethyl)-2-pyridyl]methyl]imidazo[1,5-a]quinoxaline-8-carbohydrazide]",17,≤ 1,< 100,,
"Nc1nc2cc(F)c(C(=O)N3CCC4(CCCc5ccccc54)C3)cc2n2cncc12 (stereo not drawn) [Ff-669, (4-amino-7-fluoroimidazo[1,5-a]quinoxalin-8-yl)(3,4-dihydro-2H-spiro[naphthalene-1,3′-pyrrolidin]-1′-yl)methanone]",,1 to 5,,485,100 to 1000
"Nc1nc2cc(F)c(C(=O)N3CCC[C@@H]4Oc5cc(S(F)(F)(F)(F)F)ccc5[C@@H]43)cc2n2cncc12 [Ff-663, (4-amino-7-fluoroimidazo[1,5-a]quinoxalin-8-yl)((4aS,9bS)-7-(pentafluoro-16-sulfaneyl)-3,4,4a,9b-tetrahydrobenzofuro[3,2-b]pyridin-1(2H)-yl)methanone]",,≤ 1,,23,< 100
"CCN(Cc1ccc(C(F)(F)F)cc1F)C(=O)c1cc2c(cc1F)nc(N)c1cncn12 [Ff-26, 4-amino-N-ethyl-7-fluoro-N-[[2-fluoro-4-(trifluoromethyl)phenyl]methyl]imidazo[1,5-a]quinoxaline-8-carboxamide]",210,≤ 1,< 100,,
"CN(C(=O)c1cc2c(cc1F)nc(N)c1cncn12)[C@@H]1COCc2cc(-c3ccn(C(F)(F)F)n3)ccc21 [Ff-280, (S)-4-amino-7-fluoro-N-methyl-N-(7-(1-(trifluoromethyl)-1H-pyrazol-3-yl)isochroman-4-yl)imidazo[1,5-a]quinoxaline-8-carboxamide]",118,1 to 5,< 100,,
"Nc1nc2cnc(C(=O)N3CCC[C@@H]4Oc5cc(C(F)(F)F)ccc5[C@@H]43)cc2n2c(F)ncc12 (single isomer, unassigned) [Ff-625]",,> 5,,315,100 to 1000
"Cc1ncc2c(N)nc3cc(F)c(C(=O)N(C)[C@@H]4COc5cc(C(F)(F)F)ccc54)cc3n12 [Ff-59, (S)-4-amino-7-fluoro-N,1-dimethyl-N-(6-(trifluoromethyl)-2,3-dihydrobenzofuran-3-yl)imidazo[1,5-a]quinoxaline-8-carboxamide]",65,1 to 5,< 100,,
"CCN(C(=O)c1ccc2nc(N)c3cncn3c2c1)[C@@H]1COc2cc(C(F)(F)F)ccc21 [Ff-8, (S)-4-amino-N-ethyl-N-(6-(trifluoromethyl)-2,3-dihydrobenzofuran-3-yl)imidazo[1,5-a]quinoxaline-8-carboxamide]",299,≤ 1,< 100,,
"CN(Cc1ccc(Cl)cc1C#N)C(=O)c1cc2c(cc1F)nc(N)c1cncn12 [Ff-32, 4-amino-N-(4-chloro-2-cyanobenzyl)-7-fluoro-N-methylimidazo[1,5-a]quinoxaline-8-carboxamide]",346,1 to 5,100 to 1000,,
"C[C@H](c1ncccn1)N(Cc1ccc(C(F)(F)F)cn1)C(=O)c1cc2c(cc1Cl)nc(N)n1cncc21 [Fg-3, (R)-5-amino-8-chloro-N-(1-(pyrimidin-2-yl)ethyl)-N-((5-(trifluoromethyl)pyridin-2-yl)methyl)imidazo[1,5-c]quinazoline-9-carboxamide]",,> 5,,16,100 to 1000
"CN(C(=O)c1cc2c(cc1F)nc(N)c1cncn12)[C@@H]1COc2cc(-c3cnn(C4CC4)c3)ccc21 [Ff-215, (S)-4-amino-N-(6-(1-cyclopropyl-1H-pyrazol-4-yl)-2,3-dihydrobenzofuran-3-yl)-7-fluoro-N-methylimidazo[1,5-a]quinoxaline-8-carboxamide]",224,1 to 5,< 100,,
"CN(C(=O)c1cc2c(cc1F)nc(N)c1cncn12)[C@@H]1COc2cc(C(F)(F)F)ncc21 [Ff-673, (S)-4-amino-7-fluoro-N-methyl-N-(6-(trifluoromethyl)-2,3-dihydrofuro[3,2-c]pyridin-3-yl)imidazo[1,5-a]quinoxaline-8-carboxamide]",,1 to 5,,197,< 100
"Cc1ncn2c1c(N)nc1ccc(C(=O)N(C)C3CCc4nc(C(F)(F)F)ccc43)cc12 (stereo not drawn) [Fg-12, 4-amino-N,3-dimethyl-N-(2-(trifluoromethyl)-6,7-dihydro-5H-cyclopenta[b]pyridin-5-yl)imidazo[1,5-a]quinoxaline-8-carboxamide]",,≤ 1,,168,< 100
"C[C@@H]1CC2Cc3cc(C(F)(F)F)ccc3[C@@H]2N(C(=O)c2cc3c(cc2F)nc(N)c2cncn23)C1 (mixture of isomers) [Ff-320, Rac-(4-amino-7-fluoroimidazo[1,5-a]quinoxalin-8-yl)((3R,4aR,9bR)-3-methyl-7-(trifluoromethyl)-2,3,4,4a,5,9b-hexahydro-1H-indeno[1,2-b]pyridin-1-yl)methanone]",26,1 to 5,< 100,,
"CN(C(=O)c1ccc2nc(N)c3cncn3c2c1)[C@@H]1COc2cc(C(F)(F)F)ccc21 [Ff-11, (S)-4-amino-N-methyl-N-(6-(trifluoromethyl)-2,3-dihydrobenzofuran-3-yl)imidazo[1,5-a]quinoxaline-8-carboxamide]",352,≤ 1,< 100,,
"CCN(Cc1ccc(C(F)(F)F)cc1F)C(=O)c1ccc2nc(N)c3cncn3c2c1 [Ff-25, 4-amino-N-ethyl-N-[[2-fluoro-4-(trifluoromethyl)phenyl]methyl]imidazo[1,5-a]quinoxaline-8-carboxamide]",312,1 to 5,< 100,,
